# Measurements from patent US20260028365A1 (BIOGEN MA INC., priority 2022, published 2026).
# Target: Tyk2 (Homo sapiens (Human), UniProt P29597)
# Experiment: pSTAT4 Cell Assay (MSD, NK92 cells)
# Type: cell-based
# Details: not given
# Description: The inhibitory potency of compounds of the disclosure against the Tyk2 kinase activity on STAT4 was evaluated using an MSD-platform plate-based assay format. NK92 cells natively expressing STAT4 and Tyk2 were serum-starved to reduce background phosphorylation levels, then cells were treated compounds for 1 hr with a 10-point four-fold dilution series starting at 10 μM. Cells were then stimulated with 30 ng/mL […] for 15 minutes. […] The data were normalized and the percent activity versus log concentration of compound were fitted with a 4-parameter logistic model to generate to generate IC50 curves.
# Tyk2, sequence (P29597 whole entry): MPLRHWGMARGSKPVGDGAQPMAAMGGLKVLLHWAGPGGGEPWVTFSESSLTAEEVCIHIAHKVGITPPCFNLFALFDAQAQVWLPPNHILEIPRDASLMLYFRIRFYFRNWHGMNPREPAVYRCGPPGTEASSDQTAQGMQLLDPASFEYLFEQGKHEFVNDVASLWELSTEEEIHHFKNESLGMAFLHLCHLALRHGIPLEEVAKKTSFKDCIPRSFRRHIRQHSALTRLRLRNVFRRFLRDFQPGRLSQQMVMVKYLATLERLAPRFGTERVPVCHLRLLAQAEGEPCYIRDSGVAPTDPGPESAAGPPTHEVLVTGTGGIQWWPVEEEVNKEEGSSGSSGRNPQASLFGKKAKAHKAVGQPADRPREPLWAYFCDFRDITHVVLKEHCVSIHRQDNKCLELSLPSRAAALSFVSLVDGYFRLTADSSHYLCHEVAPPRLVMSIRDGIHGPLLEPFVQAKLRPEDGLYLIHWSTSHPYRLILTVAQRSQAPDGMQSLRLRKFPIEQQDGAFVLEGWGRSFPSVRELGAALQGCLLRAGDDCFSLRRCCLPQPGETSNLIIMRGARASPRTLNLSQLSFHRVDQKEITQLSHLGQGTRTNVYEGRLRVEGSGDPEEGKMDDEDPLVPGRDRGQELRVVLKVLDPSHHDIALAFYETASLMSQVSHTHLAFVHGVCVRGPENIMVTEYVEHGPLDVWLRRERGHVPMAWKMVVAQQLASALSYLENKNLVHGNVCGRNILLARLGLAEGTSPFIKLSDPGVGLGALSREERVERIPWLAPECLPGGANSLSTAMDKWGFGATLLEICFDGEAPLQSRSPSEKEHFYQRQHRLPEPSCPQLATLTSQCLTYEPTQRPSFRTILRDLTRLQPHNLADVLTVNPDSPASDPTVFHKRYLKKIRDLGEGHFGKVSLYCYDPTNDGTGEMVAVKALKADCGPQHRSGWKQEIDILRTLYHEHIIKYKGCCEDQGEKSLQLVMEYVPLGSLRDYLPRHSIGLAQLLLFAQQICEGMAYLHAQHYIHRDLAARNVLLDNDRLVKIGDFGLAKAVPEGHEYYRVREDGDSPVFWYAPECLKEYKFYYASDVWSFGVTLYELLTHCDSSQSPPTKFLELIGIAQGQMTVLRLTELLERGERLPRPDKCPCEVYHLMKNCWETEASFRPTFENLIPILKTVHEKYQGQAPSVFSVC
row,IC50 [µM],SMILES
1,0.1 to 1,"CCc1cc(Nc2cc(NC(C)=O)ncc2-c2ccnc(CN3CCOCC3)n2)nc(C(C)(F)F)n1 [Example 909, N-(4-((2-(1,1-difluoroethyl)-6-ethylpyrimidin-4-yl)amino)-5-(2-(morpholinomethyl)pyrimidin-4-yl)pyridin-2-yl)acetamide]"

# Same assay, conditions: MSD
row,IC50 [µM],SMILES
1,≥ 1,"CC(=O)Nc1cc(Nc2cc(C)nc(C(C)(F)F)n2)c(-c2nccc(N3CCOCC3)n2)cn1 [Example 674, N-(4-((2-(1,1-difluoroethyl)-6-methylpyrimidin-4-yl)amino)-5-(4-morpholinopyrimidin-2-yl)pyridin-2-yl)acetamide]"
2,≤ 0.01,"CC(=O)Nc1cc(Nc2cc(C)nc(C34COC(C3)C4)n2)c(-c2ccc(N3CCOCC3)cn2)cn1 [Example 574, N-(4′-((2-(2-oxabicyclo[2.1.1]hexan-4-yl)-6-methylpyrimidin-4-yl)amino)-5-morpholinO[2,3′-bipyridin]-6′-yl)acetamide]"
3,0.01 to 0.1,"CNC(=O)COc1cnc(NC(C)=O)cc1Nc1cc(C)nc(C(C)(F)F)n1 [Example 102, 2-((6-acetamido-4-((2-(1,1-difluoroethyl)-6-methylpyrimidin-4-yl)amino)pyridin-3-yl)oxy)-N-methylacetamide]"
4,≤ 0.01,"COCCOc1cc(Nc2cc(NC(C)=O)ncc2-c2ccn(C)n2)nc(C(C)(F)F)n1 [Example 207, N-(4-((2-(1,1-difluoroethyl)-6-(2-methoxyethoxy)pyrimidin-4-yl)amino)-5-(1-methyl-1H-pyrazol-3-yl)pyridin-2-yl)acetamide]"
5,0.1 to 1,"COc1nc(-c2cnc(NC(C)=O)cc2Nc2cc(C)nc(C(C)(F)F)n2)nn1C [Example 609, N-(4-((2-(1,1-difluoroethyl)-6-methylpyrimidin-4-yl)amino)-5-(5-methoxy-1-methyl-1H-1,2,4-triazol-3-yl)pyridin-2-yl)acetamide]"
6,0.01 to 0.1,"CC(=O)Nc1cc(Nc2cc(C)nc(C(C)(F)F)n2)c(OCc2ccnc(F)c2)cn1 [Example 120, N-(4-((2-(1,1-difluoroethyl)-6-methylpyrimidin-4-yl)amino)-5-((2-fluoropyridin-4-yl)methoxy)pyridin-2-yl)acetamide]"
7,0.01 to 0.1,"CC(=O)Nc1cc(Nc2cc(C)nc(C(C)(F)F)n2)c(OCc2cc(C#N)ccn2)cn1 [Example 129, N-(5-((4-cyanopyridin-2-yl)methoxy)-4-((2-(1,1-difluoroethyl)-6-methylpyrimidin-4-yl)amino)pyridin-2-yl)acetamide]"
8,≤ 0.01,"CC(=O)Nc1cc(Nc2cccc(C(F)CF)n2)c(-c2ccn(C)n2)cn1 (stereo not shown) [Example 149, N-(4-((6-(1,2-difluoroethyl)pyridin-2-yl)amino)-5-(1-methyl-1H-pyrazol-3-yl)pyridin-2-yl)acetamide]"
9,0.01 to 0.1,"CC(=O)Nc1cc(Nc2cc(C)nc(C(C)(F)F)n2)c(-c2ncc3c(n2)COC3)cn1 [Example 678, N-(4-((2-(1,1-difluoroethyl)-6-methylpyrimidin-4-yl)amino)-5-(5,7-dihydrofuro[3,4-d]pyrimidin-2-yl)pyridin-2-yl)acetamide]"
10,≤ 0.01,"CC(=O)Nc1cc(Nc2cc(C)nc(C(C)(F)F)n2)c(OCc2cnco2)cn1 [Example 122, N-(4-((2-(1,1-difluoroethyl)-6-methylpyrimidin-4-yl)amino)-5-(oxazol-5-ylmethoxy)pyridin-2-yl)acetamide]"
11,≤ 0.01,"CC(=O)Nc1cc(Nc2cc(C)nc(C34COC(C3)C4)n2)c(-c2cc3n(n2)CCN(C)C3)cn1 [Example 141, N-(4-((2-(2-oxabicyclo[2.1.1]hexan-4-yl)-6-methylpyrimidin-4-yl)amino)-5-(5-methyl-4,5,6,7-tetrahydropyrazolo[1,5-a]pyrazin-2-yl)pyridin-2-yl)acetamide]"
12,≤ 0.01,"CCN1CCn2nc(-c3cnc(NC(C)=O)cc3Nc3cc(C)nc(C45COC(C4)C5)n3)cc2C1 [Example 544, N-(4-((2-(2-oxabicyclo[2.1.1]hexan-4-yl)-6-methylpyrimidin-4-yl)amino)-5-(5-ethyl-4,5,6,7-tetrahydropyrazolo[1,5-a]pyrazin-2-yl)pyridin-2-yl)acetamide]"
